Measurements from patent US20230295234A1, “ANTIMICROBIAL PEPTIDOMIMETICS” (SPEXIS AG, priority 2020, published 2023).
Bridge positions count the residues as written; N and C are the ends. Square brackets hold non-standard residues; d marks the D form. Peptide text beside a SMILES is read from it. Pro(4R-NH2) = N[C@H]1CN[C@H](C(=O)O)C1; Gly(N-2-aminoethyl) = NCCNCC(=O)O; Hyp = O=C(O)[C@@H]1C[C@@H](O)CN1; Gly(N(CH2)3NH2) = NCCCNCC(=O)O; Pen = CC(C)(S)[C@H](N)C(=O)O; dDab = NCC[C@@H](N)C(=O)O; Dab = NCC[C@H](N)C(=O)O; Nlys = NCCCCNCC(=O)O

Legend:
[1] = test system: human red blood cells (hRBC); assay: Hemolysis of human red blood cells; assay type: cell-based; conditions: red cells of human, 1 h
Outline: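 PBS-washed human red blood cells (20% v/v) were incubated with peptide at 200 μg/mL for 1 h at 37 °C with shaking. Supernatant OD was read at 540 nm after 8-fold dilution. Hemolysis is expressed as percent of the water control.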

[2] = test system: Escherichia coli ATCC 25922; conditions: ATCC 25922
Outline: (§1)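 Two-fold serial dilutions of peptide, in water with polysorbate 80 (0.002% final), met bacteria adjusted to 0.5 McFarland then diluted to about 5×10^5 CFU/mL. Medium was cation-adjusted Mueller-Hinton II broth; peptide stocks were 1 mg/mL in sterile water.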

[3] = test system: Klebsiella pneumoniae SSI3010; conditions: SSI3010
Outline: as §1

[4] = test system: Escherichia coli MCR-1 Af 45; conditions: MCR-1 Af 45
Outline: as §1

Compound | Escherichia coli ATCC 25922 MIC [2] [µg/mL] | Klebsiella pneumoniae SSI3010 MIC [3] [µg/mL] | Escherichia coli MCR-1 Af 45 MIC [4] [µg/mL] | Hemolysis at 0.2 g/L [1] [%]
CC[C@H](C)[C@H](NC(=O)CN(CCN)C(=O)[C@@H](NC(=O)CN(CCN)C(=O)[C@@H](N)CCCCN)C(C)C)C(=O)N[C@H](C(=O)N[C@@H](Cc1ccc(O)cc1)C(=O)N[C@@H]1C(=O)N[C@@H](CC(N)=O)C(=O)N[C@@H](CCCNC(=N)N)C(=O)N[C@@H](CCN)C(=O)N[C@@H]([C@@H](C)O)C(=O)N[C@H](CCN)C(=O)N[C@@H](CCCCN)C(=O)N[C@H](C(=O)N[C@@H](Cc2ccc(O)cc2)C(=O)N[C@@H](CCCNC(=N)N)C(=O)N[C@@H](Cc2ccc(O)cc2)C(=O)O)CSSC1(C)C)[C@@H](C)O [Example 62, Lys-Ndab-Val-Ndab-Ile-Thr-Tyr-Pen-Asn-Arg-Dab-Thr-^DDab-Lys-Cys-Tyr-Arg-Tyr] (H-K[Gly(N-2-aminoethyl)]V[Gly(N-2-aminoethyl)]ITY[Pen]NR[Dab]T[dDab]KCYRY-OH; disulfide 8-15) | 0.25 | 0.25 | 0.125 | 0
CCCC[C@H](NC(=O)[C@H](CCCNC(=N)N)NC(=O)[C@H](CCC(N)=O)NC(=O)[C@@H]1CSSC[C@H](NC(=O)[C@H](Cc2ccc(O)cc2)NC(=O)[C@@H](NC(=O)[C@@H](NC(=O)[C@@H]2CCCN2C(=O)[C@@H](NC(=O)[C@@H]2CCCN2C(=O)[C@H](CCCCN)NC(=O)[C@@H](N)CCCCN)C(C)C)[C@@H](C)CC)[C@@H](C)CC)C(=O)N[C@@H](CC(N)=O)C(=O)N[C@@H](CCCNC(=N)N)C(=O)N[C@@H](CCN)C(=O)N[C@@H]([C@@H](C)O)C(=O)N[C@H](CCN)C(=O)N[C@@H](CCN)C(=O)N1)C(=O)O [Example 64] (HELM PEPTIDE1{K.K.P.V.P.I.I.Y.C.N.R.[Dab].T.[NCC[C@@H](N[*:1])C(=O)[*:2]].[Dab].C.Q.R.[Nle]}$PEPTIDE1,PEPTIDE1,9:R3-16:R3$$$V2.0) | 0.0625 | 0.25 | 0.125 | 0
CCCC[C@H](NC(=O)[C@H](CCCNC(=N)N)NC(=O)[C@H](CCCNC(=N)N)NC(=O)[C@@H]1CSSC[C@H](NC(=O)[C@H](Cc2ccc(O)cc2)NC(=O)[C@@H](NC(=O)[C@@H](NC(=O)[C@@H]2CCCN2C(=O)[C@@H](NC(=O)[C@@H]2CCCN2C(=O)[C@H](CCCCN)NC(=O)[C@@H](N)CCCCN)C(C)C)[C@@H](C)CC)[C@@H](C)CC)C(=O)N[C@@H](CC(N)=O)C(=O)N[C@@H](CCCNC(=N)N)C(=O)N[C@@H](CCN)C(=O)N[C@@H]([C@@H](C)O)C(=O)N[C@H](CCN)C(=O)N[C@@H](CCN)C(=O)N1)C(=O)O [Example 65] (HELM PEPTIDE1{K.K.P.V.P.I.I.Y.C.N.R.[Dab].T.[NCC[C@@H](N[*:1])C(=O)[*:2]].[Dab].C.R.R.[Nle]}$PEPTIDE1,PEPTIDE1,9:R3-16:R3$$$V2.0) | ≤0.0625 | 0.0625 | 0.0625 | 0
CCCC[C@H](NC(=O)[C@H](CCCNC(=N)N)NC(=O)[C@H](CCN)NC(=O)[C@@H]1CSSC[C@H](NC(=O)[C@H](Cc2ccc(O)cc2)NC(=O)[C@@H](NC(=O)[C@@H](NC(=O)[C@@H]2CCCN2C(=O)[C@@H](NC(=O)[C@@H]2CCCN2C(=O)[C@H](CCCCN)NC(=O)[C@@H](N)CCCCN)C(C)C)[C@@H](C)CC)[C@@H](C)CC)C(=O)N[C@@H](CC(N)=O)C(=O)N[C@@H](CCCNC(=N)N)C(=O)N[C@@H](CCN)C(=O)N[C@@H]([C@@H](C)O)C(=O)N[C@H](CCN)C(=O)N[C@@H](CCCCN)C(=O)N1)C(=O)O [Example 66] (HELM PEPTIDE1{K.K.P.V.P.I.I.Y.C.N.R.[Dab].T.[NCC[C@@H](N[*:1])C(=O)[*:2]].K.C.[Dab].R.[Nle]}$PEPTIDE1,PEPTIDE1,9:R3-16:R3$$$V2.0) | 0.03125 | 0.125 | 0.0625 | 0
CCCC[C@H](NC(=O)[C@H](CCCNC(=N)N)NC(=O)[C@H](CCC(N)=O)NC(=O)[C@@H]1CSSC[C@H](NC(=O)[C@H](Cc2ccc(O)cc2)NC(=O)[C@@H](NC(=O)[C@@H](NC(=O)[C@@H]2CCCN2C(=O)[C@@H](NC(=O)[C@@H]2CCCN2C(=O)[C@H](CCCCN)NC(=O)[C@@H](N)CCCCN)C(C)C)[C@@H](C)CC)[C@@H](C)CC)C(=O)N[C@@H](CC(N)=O)C(=O)N[C@@H](CCCNC(=N)N)C(=O)N[C@@H](CCN)C(=O)N[C@@H]([C@@H](C)O)C(=O)N[C@H](CCN)C(=O)N[C@@H](CCCCN)C(=O)N1)C(=O)O [Example 67] (HELM PEPTIDE1{K.K.P.V.P.I.I.Y.C.N.R.[Dab].T.[NCC[C@@H](N[*:1])C(=O)[*:2]].K.C.Q.R.[Nle]}$PEPTIDE1,PEPTIDE1,9:R3-16:R3$$$V2.0) | 0.125 | 0.25 | 0.25 | 0

Second part, led by results:

Escherichia coli ATCC 25922 MIC [2] [µg/mL] | Klebsiella pneumoniae SSI3010 MIC [3] [µg/mL] | Escherichia coli MCR-1 Af 45 MIC [4] [µg/mL] | Compound | Hemolysis at 0.2 g/L [1] [%]
0.25 | 0.25 | 0.125 | CC[C@H](C)[C@H](NC(=O)[C@@H]1C[C@@H](O)CN1C(=O)[C@@H](NC(=O)[C@@H]1C[C@@H](N)CN1C(=O)CNCCCCN)C(C)C)C(=O)N[C@H](C(=O)N[C@@H](Cc1ccc(O)cc1)C(=O)N[C@@H]1C(=O)N[C@@H](CC(N)=O)C(=O)N[C@@H](CCCNC(=N)N)C(=O)N[C@@H](CCN)C(=O)N[C@@H]([C@@H](C)O)C(=O)N[C@H](CCN)C(=O)N[C@@H](CCCCN)C(=O)N[C@H](C(=O)N[C@@H](Cc2ccc(O)cc2)C(=O)N[C@@H](CCCNC(=N)N)C(=O)N[C@@H](Cc2ccc(O)cc2)C(=O)O)CSSC1(C)C)[C@@H](C)O [Example 59, Nlys-Pro((4R)NH2)-Val-Hyp-Ile-Thr-Tyr-Pen-Asn-Arg-Dab-Thr-^DDab-Lys-Cys-Tyr-Arg-Tyr] (H-[Nlys][Pro(4R-NH2)]V[Hyp]ITY[Pen]NR[Dab]T[dDab]KCYRY-OH; disulfide 8-15; N-terminus and C-terminus assumed) | 0
0.25 | 0.25 | 0.125 | CC[C@H](C)[C@H](NC(=O)[C@@H]1C[C@@H](O)CN1C(=O)[C@@H](NC(=O)CN(CCN)C(=O)CNCCCN)C(C)C)C(=O)N[C@H](C(=O)N[C@@H](Cc1ccc(O)cc1)C(=O)N[C@@H]1C(=O)N[C@@H](CC(N)=O)C(=O)N[C@@H](CCCNC(=N)N)C(=O)N[C@@H](CCN)C(=O)N[C@@H]([C@@H](C)O)C(=O)N[C@H](CCN)C(=O)N[C@@H](CCCCN)C(=O)N[C@H](C(=O)N[C@@H](Cc2ccc(O)cc2)C(=O)N[C@@H](CCCNC(=N)N)C(=O)N[C@@H](Cc2ccc(O)cc2)C(=O)O)CSSC1(C)C)[C@@H](C)O [Example 60, Norn-Ndab-Val-Hyp-Ile-Thr-Tyr-Pen-Asn-Arg-Dab-Thr-^DDab-Lys-Cys-Tyr-Arg-Tyr] (H-[Gly(N(CH2)3NH2)][Gly(N-2-aminoethyl)]V[Hyp]ITY[Pen]NR[Dab]T[dDab]KCYRY-OH; disulfide 8-15; N-terminus assumed) | 0
0.25 | 0.125 | 0.125 | CC[C@H](C)[C@H](NC(=O)[C@@H]1C[C@@H](O)CN1C(=O)[C@@H](NC(=O)CN(CCN)C(=O)CNCCCCN)C(C)C)C(=O)N[C@H](C(=O)N[C@@H](Cc1ccc(O)cc1)C(=O)N[C@@H]1C(=O)N[C@@H](CC(N)=O)C(=O)N[C@@H](CCCNC(=N)N)C(=O)N[C@@H](CCN)C(=O)N[C@@H]([C@@H](C)O)C(=O)N[C@H](CCN)C(=O)N[C@@H](CCCCN)C(=O)N[C@H](C(=O)N[C@@H](Cc2ccc(O)cc2)C(=O)N[C@@H](CCCNC(=N)N)C(=O)N[C@@H](Cc2ccc(O)cc2)C(=O)O)CSSC1(C)C)[C@@H](C)O [Example 61, Nlys-Ndab-Val-Hyp-Ile-Thr-Tyr-Pen-Asn-Arg-Dab-Thr-^DDab-Lys-Cys-Tyr-Arg-Tyr] (H-[Nlys][Gly(N-2-aminoethyl)]V[Hyp]ITY[Pen]NR[Dab]T[dDab]KCYRY-OH; disulfide 8-15) | 0
0.0625 | 0.125 | 0.0625 | CC[C@H](C)[C@H](NC(=O)[C@@H]1C[C@@H](O)CN1C(=O)[C@@H](NC(=O)[C@@H]1C[C@@H](O)CN1C(=O)[C@H](CCCCN)NC(=N)N)C(C)C)C(=O)N[C@H](C(=O)N[C@@H](Cc1ccc(O)cc1)C(=O)N[C@@H]1C(=O)N[C@@H](CC(N)=O)C(=O)N[C@@H](CCCNC(=N)N)C(=O)N[C@@H](CCN)C(=O)N[C@@H]([C@@H](C)O)C(=O)N[C@H](CCN)C(=O)N[C@@H](CCCCN)C(=O)N[C@H](C(=O)N[C@@H](CCN)C(=O)N[C@@H](CCCNC(=N)N)C(=O)N[C@@H](Cc2ccc(O)cc2)C(=O)O)CSSC1(C)C)[C@@H](C)O [Example 63, Gua-Lys-Hyp-Val-Hyp-Ile-Thr-Tyr-Pen-Asn-Arg-Dab-Thr-^DDab-Lys-Cys-Dab-Arg-Tyr] (HELM PEPTIDE1{[N=C(N)N[C@@H](CCCCN)C(=O)[*:2]].[Hyp].V.[Hyp].I.T.Y.[Pen].N.R.[Dab].T.[NCC[C@@H](N[*:1])C(=O)[*:2]].K.C.[Dab].R.Y}$PEPTIDE1,PEPTIDE1,8:R3-15:R3$$$V2.0) | 0
